{"source": "paper PMC10287566", "about": "“Signaling-specific inhibition of the CB1 receptor for cannabis use disorder: phase 1 and phase 2a randomized trials” (Nature Medicine, 2023)", "key": {"volunteers with CUD": {"tested_on": "volunteers with CUD", "experiment": "Phase 2a study, precipitated withdrawal, mood and sleep", "type": "in vivo, human", "procedure": "In addition to general safety assessment of vital signs, clinical chemistry and AEs, symptoms of cannabis withdrawal were assessed by daily measures of food intake, body weight, sleep efficiency[23],[41],[42] and mood[22]. […]\nWe measured seven subscales of the 44-item VAS (‘Miserable’, ‘Anxious’, ‘Tired’, ‘Confused’, ‘Irritable’, ‘Social’ and ‘Bad effect’). […] Ratings were then done repeatedly (five times at 20, 40, 60, 90 and 120 min after cannabis)."}, "[1]": {"molecular_target": "GR (glucocorticoid receptor) (Homo sapiens, UniProt P04150)", "sequence (P04150 whole entry)": "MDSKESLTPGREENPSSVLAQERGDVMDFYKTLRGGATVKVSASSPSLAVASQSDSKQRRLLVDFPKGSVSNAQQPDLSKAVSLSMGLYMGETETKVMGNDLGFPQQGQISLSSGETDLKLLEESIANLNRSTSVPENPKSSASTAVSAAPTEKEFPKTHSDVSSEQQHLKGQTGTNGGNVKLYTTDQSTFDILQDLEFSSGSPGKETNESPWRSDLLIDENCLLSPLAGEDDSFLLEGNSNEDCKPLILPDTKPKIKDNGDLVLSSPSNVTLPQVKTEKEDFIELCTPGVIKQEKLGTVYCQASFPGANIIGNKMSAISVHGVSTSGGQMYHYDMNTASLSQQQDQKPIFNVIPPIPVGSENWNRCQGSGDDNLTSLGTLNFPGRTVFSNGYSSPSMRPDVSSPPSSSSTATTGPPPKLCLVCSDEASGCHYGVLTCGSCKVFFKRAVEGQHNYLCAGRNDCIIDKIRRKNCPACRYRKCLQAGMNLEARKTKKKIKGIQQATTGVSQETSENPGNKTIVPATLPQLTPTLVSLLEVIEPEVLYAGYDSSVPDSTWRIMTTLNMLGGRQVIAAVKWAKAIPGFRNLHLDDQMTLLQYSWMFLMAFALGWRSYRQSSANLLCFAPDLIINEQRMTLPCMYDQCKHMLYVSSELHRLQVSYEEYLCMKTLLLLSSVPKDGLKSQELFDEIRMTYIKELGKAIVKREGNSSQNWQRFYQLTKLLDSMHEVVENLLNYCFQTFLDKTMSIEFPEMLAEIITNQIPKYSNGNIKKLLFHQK", "experiment": "Eurofins binding screen", "conditions": "read-out: Percent inhibition of control specific binding"}, "squirrel monkeys": {"tested_on": "squirrel monkeys", "experiment": "THC-induced reinstatement of THC seeking in squirrel monkeys", "type": "in vivo, Saimiri sciureus", "description": "Two experimental models were used: (1) THC i.v. self-administration and (2) THC-induced reinstatement of THC seeking. These two approaches were used to model the maintenance of daily cannabis use and cannabis seeking after a period of abstinence.\nFor the THC-induced reinstatement of THC seeking, the monkeys underwent daily extinction sessions during which lever presses led to vehicle infusions and the visual cues previously paired with THC infusions but not THC. […] THC injections were given immediately before the start of the test sessions. During testing, lever presses (FR10) continued to produce only vehicle injections and the THC-paired cues. […] Recommendations from the Guide for the Care and Use of Laboratory Animals (8th edition) and guidelines of the Institutional Animal Care and Use Committee of the Intramural Research Program, NIDA, NIH, DHHS, were followed. Animals were maintained in facilities fully accredited by the AAALAC. Operation of the experimental chambers and data collection were controlled by IBM computers using the MED Associates MED-PC software package."}, "[2]": {"experiment": "Plasma and brain pharmacokinetics of oral AEF0117 in mice", "type": "in vivo", "conditions": "mouse; for Kp: brain/plasma", "procedure": "Blood samples were centrifuged within 15 min after collection (~7 min at 1,600g and 4 °C) to obtain plasma. The brain was also harvested, weighed and frozen on dry ice. Plasma and brains were stored below −70 °C until analysis."}, "healthy volunteers": {"tested_on": "healthy volunteers", "type": "in vivo, human", "conditions": "MAD", "experimental": "Participants were admitted to the research clinic at midday before dosing (day −1). In the SAD study, they remained in-house until day 8 for PK and PD samples and safety assessments. In the MAD study, participants remained in-house until day 14 and returned to the research facility on an outpatient basis to have PK and safety assessments at 216 h and 264 h (day 16 and day 18) after their last dose (day 7). Safety monitoring (physical examinations, vital sign measurements, 12-lead ECGs, clinical safety laboratory tests and AE monitoring) were performed throughout the studies. Psychometrics tests (Bond & Lader VAS, Addiction Research Center Inventory (49-item short form) (ARCI-49) and Profile of Mood States 65 self-report items (POMS-65)) and the Columbia-Suicide Severity Rating Scale (C-SSRS) test were performed at baseline, before dose and at 4 h and 24 h after dose on day 1 and day 7 (MAD study, only) and C-SSRS only at 24 h."}, "mice [3]": {"tested_on": "mice", "experiment": "THC-induced increase in food intake (fasting-refeeding)", "type": "in vivo"}, "mice [4]": {"tested_on": "mice", "experiment": "THC-induced catalepsy (bar test)", "type": "in vivo"}, "mice [5]": {"tested_on": "mice", "experiment": "Depression-related behavior, sucrose preference test, repeated treatment", "type": "in vivo", "conditions": "mice, sucrose preference test, highest dose tested 15 mg/kg", "description": "Anxiety-like behaviors were studied in the elevated plus maze (EPM), a rodent model used to evaluate the putative anxiogenic or anxiolytic effects of pharmacological compounds. Depression-related behaviors were studied using the sucrose preference test as a model of anhedonia, one of the cardinal symptoms of depression.\nThe sucrose preference test was done in the home cage. Two identical bottles, one containing water and the other containing a 2% sucrose solution, were placed in the hopper of each cage. The mice had unlimited access to water and sucrose solutions during the active phase—the dark phase of the light/dark cycle that started at 20:00. The volume of water and of sucrose solution consumed was measured over two […] intervals, the first between 19:00 and 20:30 and the second between 20:30 and 22:00. At each timepoint, the bottles were weighed, and the intake volume was calculated by subtracting the […].\nThe EPM assessment was done on day 26, and the sucrose preference test was done on day 28."}, "mice [6]": {"tested_on": "mice", "experiment": "THC-induced increase in psychomotor stimulation (open field)", "type": "in vivo"}, "rats": {"tested_on": "rats", "experiment": "Respiration in unrestrained conscious rats (GLP)"}, "[7]": {"conditions": "Reinstatement of THC self-administration"}, "[8]": {"conditions": "both sexes, CD-1 Swiss, plasma, mice po 0.3 mg/kg single"}, "[9]": {"conditions": "both sexes, CD-1 Swiss, plasma, mice po 4 mg/kg single"}, "[10]": {"conditions": "both sexes, CD-1 Swiss, plasma, mice po 10 mg/kg single"}, "[11]": {"conditions": "Increase in psychomotor stimulation"}}, "note": "Where two headings read alike, the source gives them in different places.", "data": [{"smiles": "COc1ccc(CO[C@H]2CC[C@@]3(C)C(=CC[C@H]4[C@@H]5CC[C@H](C(C)=O)[C@@]5(C)CC[C@@H]43)C2)cc1", "note": "[AEF0117, 3β-(4-methoxybenzyloxy)pregn-5-en-20-one]", "values": [{"measurement": "'Social' subscale rating after smoking cannabis, mean (SEM)", "setting": "volunteers with CUD; 0.06 mg cohort, Day 1", "result": "66.9 (4.3)"}, {"measurement": "'Social' subscale, AEF0117-Placebo", "setting": "volunteers with CUD; 0.06 mg cohort, Day 1", "result": -5.9}, {"measurement": "'Social' subscale rating after smoking cannabis, mean (SEM)", "setting": "volunteers with CUD; 0.06 mg cohort, Day 2", "result": "67.4 (5.8)"}, {"measurement": "'Social' subscale, AEF0117-Placebo", "setting": "volunteers with CUD; 0.06 mg cohort, Day 2", "result": -3.1}, {"measurement": "'Social' subscale rating after smoking cannabis, mean (SEM)", "setting": "volunteers with CUD; 0.06 mg cohort, Day 3", "result": "64.4 (6.0)"}, {"measurement": "'Social' subscale, AEF0117-Placebo", "setting": "volunteers with CUD; 0.06 mg cohort, Day 3", "result": -6.6}, {"measurement": "'Social' subscale rating after smoking cannabis, mean (SEM)", "setting": "volunteers with CUD; 0.06 mg cohort, Day 4", "result": "63.9 (5.6)"}, {"measurement": "'Social' subscale, AEF0117-Placebo", "setting": "volunteers with CUD; 0.06 mg cohort, Day 4", "result": -7.8}, {"measurement": "'Social' subscale rating after smoking cannabis, mean (SEM)", "setting": "volunteers with CUD; 0.06 mg cohort, Day 5", "result": "64.0 (5.8)"}, {"measurement": "'Social' subscale, AEF0117-Placebo", "setting": "volunteers with CUD; 0.06 mg cohort, Day 5", "result": -6.0}, {"measurement": "'Social' subscale rating after smoking cannabis, mean (SEM)", "setting": "volunteers with CUD; 1 mg cohort, Day 1", "result": "71.9 (5.5)"}, {"measurement": "'Social' subscale, AEF0117-Placebo", "setting": "volunteers with CUD; 1 mg cohort, Day 1", "result": 3.9}, {"measurement": "'Social' subscale rating after smoking cannabis, mean (SEM)", "setting": "volunteers with CUD; 1 mg cohort, Day 2", "result": "71.4 (5.2)"}, {"measurement": "'Social' subscale, AEF0117-Placebo", "setting": "volunteers with CUD; 1 mg cohort, Day 2", "result": 1.3}, {"measurement": "'Social' subscale rating after smoking cannabis, mean (SEM)", "setting": "volunteers with CUD; 1 mg cohort, Day 3", "result": "71.1 (5.6)"}, {"measurement": "'Social' subscale, AEF0117-Placebo", "setting": "volunteers with CUD; 1 mg cohort, Day 3", "result": 0.1}, {"measurement": "'Social' subscale rating after smoking cannabis, mean (SEM)", "setting": "volunteers with CUD; 1 mg cohort, Day 4", "result": "67.0 (5.9)"}, {"measurement": "'Social' subscale, AEF0117-Placebo", "setting": "volunteers with CUD; 1 mg cohort, Day 4", "result": -6.0}, {"measurement": "'Social' subscale rating after smoking cannabis, mean (SEM)", "setting": "volunteers with CUD; 1 mg cohort, Day 5", "result": "69.5 (6.6)"}, {"measurement": "'Social' subscale, AEF0117-Placebo", "setting": "volunteers with CUD; 1 mg cohort, Day 5", "result": -1.6}, {"measurement": "difference between AEF0117 and placebo on the 'Social' subscale", "setting": "volunteers with CUD; 100-mm scale, after cannabis", "result": "< 8", "unit": "mm"}, {"measurement": "precipitation of cannabis withdrawal", "setting": "volunteers with CUD; Phase 2a, 0.06 and 1 mg", "result": "little to suggest that AEF0117 precipitated cannabis withdrawal"}, {"measurement": "'Irritable' subscale, effect of treatment", "setting": "volunteers with CUD; Treatment x Day x Time, before cannabis", "result": "small but significant effect"}, {"measurement": "inhibition at 10 µM", "setting": "[1]", "result": 22, "unit": "%"}, {"measurement": "reinstatement of THC seeking", "setting": "squirrel monkeys; 1.5 µg kg^−1 oral", "result": "significantly reduced"}, {"measurement": "% Inhibition", "setting": "squirrel monkeys; [7]", "result": 80, "unit": "%"}, {"measurement": "ID100", "setting": "squirrel monkeys; [7]", "result": "≤ 1.5", "unit": "µg/kg"}, {"measurement": "Tmax", "setting": "[2]; CD-1 Swiss (mice), Sprague Dawley (rats), brain, oral, mice and rats, read-out: tmax in the brain", "result": 7, "unit": "h"}, {"measurement": "Kp", "setting": "[2]; CD-1 Swiss (mice), Sprague Dawley (rats), po, mice and rats, oral, corn oil, read-out: brain/plasma concentration AUC ratio", "result": "> 4"}, {"measurement": "Tmax", "setting": "[2]; CD-1 Swiss (mice), Sprague Dawley (rats), Beagle (dogs), plasma, po, mice, rats and dogs, single per os, read-out: tmax", "result": "~3", "unit": "h"}, {"measurement": "Kp", "setting": "[2]; both sexes, CD-1 Swiss, oral, 0.3 mg/kg, read-out: AUClast brain/plasma ratio", "result": 7.3}, {"measurement": "half-life", "setting": "[2]; both sexes, CD-1 Swiss, plasma, po, mice per os, read-out: half-life", "result": "10.1 to 25.6", "unit": "h"}, {"measurement": "AUC(0-t)", "setting": "[2]; [8]", "result": 0.252, "unit": "µg·h/mL"}, {"measurement": "Cmax", "setting": "[2]; [8]", "result": 0.0355, "unit": "µg/mL"}, {"measurement": "Tmax", "setting": "[2]; both sexes, CD-1 Swiss, plasma, mice po 0.3 mg/kg single, read-out: tmax", "result": 2.5, "unit": "h"}, {"measurement": "half-life", "setting": "[2]; both sexes, CD-1 Swiss, plasma, mice po 0.3 mg/kg single, read-out: t½ (converted)", "result": 17.8, "unit": "h"}, {"measurement": "AUC(0-t)", "setting": "[2]; [9]", "result": 3.73, "unit": "µg·h/mL"}, {"measurement": "Cmax", "setting": "[2]; [9]", "result": 0.49, "unit": "µg/mL"}, {"measurement": "Tmax", "setting": "[2]; both sexes, CD-1 Swiss, plasma, mice po 4 mg/kg single, read-out: tmax", "result": 2.25, "unit": "h"}, {"measurement": "half-life", "setting": "[2]; both sexes, CD-1 Swiss, plasma, mice po 4 mg/kg single, read-out: t½ (converted)", "result": 18.3, "unit": "h"}, {"measurement": "AUC(0-t)", "setting": "[2]; [10]", "result": 11.3, "unit": "µg·h/mL"}, {"measurement": "Cmax", "setting": "[2]; [10]", "result": 1.79, "unit": "µg/mL"}, {"measurement": "Tmax", "setting": "[2]; both sexes, CD-1 Swiss, plasma, mice po 10 mg/kg single, read-out: tmax", "result": 2.25, "unit": "h"}, {"measurement": "half-life", "setting": "[2]; both sexes, CD-1 Swiss, plasma, mice po 10 mg/kg single, read-out: t½ (converted)", "result": 18.2, "unit": "h"}, {"measurement": "Tmax", "setting": "[2]; both sexes, CD-1 Swiss, plasma, mice, oral, corn oil, read-out: Tmax", "result": 3, "unit": "h"}, {"measurement": "ARCI 49 sub-scores", "setting": "healthy volunteers; 0.6-6 mg vs placebo", "result": "No relevant trend"}, {"measurement": "Bond and Lader VAS (alertness, contentedness, calmness)", "setting": "healthy volunteers; 0.6-6 mg vs placebo", "result": "No relevant differences between groups"}, {"measurement": "POMS 65 derived sub-scores", "setting": "healthy volunteers; 0.6-6 mg vs placebo, except one outlier participant", "result": "no dose related trend"}, {"measurement": "C-SSRS: number of subjects with suicidal ideation or behavior", "setting": "healthy volunteers; all doses 0.6-6 mg, Day 1 and Day 8", "result": "0 n (%)"}, {"measurement": "THC's effects on food intake", "setting": "mice [3]", "result": "inhibited"}, {"measurement": "% Inhibition", "setting": "mice [3]; Increase in food intake", "result": 100, "unit": "%"}, {"measurement": "ID50", "setting": "mice [3]; Increase in food intake", "result": 15, "unit": "µg/kg"}, {"measurement": "ID100", "setting": "mice [3]; Increase in food intake", "result": 50, "unit": "µg/kg"}, {"measurement": "THC-induced catalepsy", "setting": "mice [4]", "result": "inhibited"}, {"measurement": "% Inhibition", "setting": "mice [4]; Catalepsy", "result": 50, "unit": "%"}, {"measurement": "ID50", "setting": "mice [4]; Catalepsy", "result": 5, "unit": "µg/kg"}, {"measurement": "ID100", "setting": "mice [4]; Catalepsy", "result": 50, "unit": "µg/kg"}, {"measurement": "Overall effect: increase in depression-related behaviors", "setting": "mice [5]", "result": "No"}, {"measurement": "THC-increased psychomotor stimulation", "setting": "mice [6]", "result": "inhibited"}, {"measurement": "% Inhibition", "setting": "mice [6]; [11]", "result": 100, "unit": "%"}, {"measurement": "ID50", "setting": "mice [6]; [11]", "result": 0.36, "unit": "µg/kg"}, {"measurement": "ID100", "setting": "mice [6]; [11]", "result": 1.5, "unit": "µg/kg"}, {"measurement": "adverse effects on respiration", "setting": "rats", "result": "did not show any adverse effects"}]}]}
